Tests used:
Assay in all cases: Yeast growth assay, specificity profiling;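 on EGFR (L858R) growth restoration: Parenthesized + marks a result obtained in a different yeast background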
Assay type in all cases: cell-based
EphA2 = biological target: T1, EphA2 (Homo sapiens, UniProt P29317); set-up: key: “−” indicates no growth restoration i.e. no activity against the particular kinase; “+”, “++”, and “+++” indicate activity detected by restoration of growth, classified into three categories of potency; “+”, “++”, and “+++” indicate activity detected by restoration of growth, classified into three categories of potency; “+”, “++”, and “+++” indicate activity detected by restoration of growth, classified into three categories of potency; conditions: 7 concentrations between 0.2 and 100 μM
T1 construct: expressed in transfected cells; host or cells: yeast
Procedure: (§1) Specificity Profiling: Yeast Growth Assay
(§2) The yeast growth assay was performed as described in “Method for the identification and/or validation of receptor tyrosine kinase inhibitors” PCT/CH03/00694 (2004/10/24), section “Modes for Carrying out the Invention, Experiment 1 and Experiment 2.
(§3) Briefly, yeast cells carrying plasmids with the RTK of interest were grown in glucose containing medium (repressing expression). The cultures were diluted into galactose containing medium, which induces the expression of the kinase. Expression of the kinase inhibits growth of the yeast cells, which allows for positive selection of kinase inhibitors restoring growth of cells. Compounds were titrated at 7 concentrations between 0.2 and 100 μM.
(§4) Specificity profiling of compounds, using the yeast growth assay method described above. “−” indicates no growth restoration i.e. no activity against the particular kinase, “+”, “++”, and “+++” indicate activity detected by restoration of growth, classified into three categories of potency according to the maximal level of growth restoration reached and the concentration at which the maximal growth restoration is reached.

EphB2 = biological target: T2, EphB2 (Homo sapiens, UniProt P29323); set-up: key: “−” indicates no growth restoration i.e. no activity against the particular kinase; “+”, “++”, and “+++” indicate activity detected by restoration of growth, classified into three categories of potency; “+”, “++”, and “+++” indicate activity detected by restoration of growth, classified into three categories of potency; “+”, “++”, and “+++” indicate activity detected by restoration of growth, classified into three categories of potency; conditions: 7 concentrations between 0.2 and 100 μM
T2 construct: expressed in transfected cells; host or cells: yeast
T2 sequence (P29323 19-1055): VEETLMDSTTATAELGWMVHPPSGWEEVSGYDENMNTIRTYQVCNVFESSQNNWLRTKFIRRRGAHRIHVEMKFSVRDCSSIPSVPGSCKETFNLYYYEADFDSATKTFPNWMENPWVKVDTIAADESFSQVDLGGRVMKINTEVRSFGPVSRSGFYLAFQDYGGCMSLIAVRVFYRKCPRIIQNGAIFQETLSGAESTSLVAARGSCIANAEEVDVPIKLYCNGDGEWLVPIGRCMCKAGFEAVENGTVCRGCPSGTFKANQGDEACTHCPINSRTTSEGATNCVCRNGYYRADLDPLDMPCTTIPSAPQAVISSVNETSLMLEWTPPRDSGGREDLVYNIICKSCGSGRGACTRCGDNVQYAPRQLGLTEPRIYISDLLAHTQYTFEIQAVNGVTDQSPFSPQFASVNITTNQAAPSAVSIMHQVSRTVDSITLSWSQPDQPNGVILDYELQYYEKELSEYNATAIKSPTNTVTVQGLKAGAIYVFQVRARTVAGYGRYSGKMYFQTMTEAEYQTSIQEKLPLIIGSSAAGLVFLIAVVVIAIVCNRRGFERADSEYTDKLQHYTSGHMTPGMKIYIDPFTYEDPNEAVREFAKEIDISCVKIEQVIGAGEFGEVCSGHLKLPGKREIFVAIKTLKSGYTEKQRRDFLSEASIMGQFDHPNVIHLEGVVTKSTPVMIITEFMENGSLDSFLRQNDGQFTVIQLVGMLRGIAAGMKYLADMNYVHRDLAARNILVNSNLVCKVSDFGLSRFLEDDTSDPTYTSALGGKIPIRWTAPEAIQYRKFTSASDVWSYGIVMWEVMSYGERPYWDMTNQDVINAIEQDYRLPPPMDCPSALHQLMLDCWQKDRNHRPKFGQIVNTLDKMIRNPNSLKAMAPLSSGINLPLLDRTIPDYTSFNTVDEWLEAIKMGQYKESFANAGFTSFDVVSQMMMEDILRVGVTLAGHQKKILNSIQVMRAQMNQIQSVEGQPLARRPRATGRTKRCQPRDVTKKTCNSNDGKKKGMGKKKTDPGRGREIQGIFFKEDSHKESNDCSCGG
Procedure: as §1, §2, §3, §4

RET = biological target: T3, RET (Homo sapiens, UniProt P07949); set-up: key: “−” indicates no growth restoration i.e. no activity against the particular kinase; “+”, “++”, and “+++” indicate activity detected by restoration of growth, classified into three categories of potency; “+”, “++”, and “+++” indicate activity detected by restoration of growth, classified into three categories of potency; “+”, “++”, and “+++” indicate activity detected by restoration of growth, classified into three categories of potency; conditions: 7 concentrations between 0.2 and 100 μM
T3 construct: expressed in transfected cells; host or cells: yeast
Procedure: as §1, §2, §3, §4

TEK = biological target: T4, TEK (Homo sapiens, UniProt Q02763); set-up: key: “−” indicates no growth restoration i.e. no activity against the particular kinase; “+”, “++”, and “+++” indicate activity detected by restoration of growth, classified into three categories of potency; “+”, “++”, and “+++” indicate activity detected by restoration of growth, classified into three categories of potency; “+”, “++”, and “+++” indicate activity detected by restoration of growth, classified into three categories of potency; conditions: 7 concentrations between 0.2 and 100 μM
T4 construct: expressed in transfected cells; host or cells: yeast
Procedure: as §1, §2, §3, §4

VEGFR1 = biological target: T5, VEGFR1 (Homo sapiens, UniProt P17948); set-up: key: “−” indicates no growth restoration i.e. no activity against the particular kinase; “+”, “++”, and “+++” indicate activity detected by restoration of growth, classified into three categories of potency; “+”, “++”, and “+++” indicate activity detected by restoration of growth, classified into three categories of potency; “+”, “++”, and “+++” indicate activity detected by restoration of growth, classified into three categories of potency; conditions: 7 concentrations between 0.2 and 100 μM
T5 construct: expressed in transfected cells; host or cells: yeast
Procedure: as §1, §2, §3, §4

VEGFR2 = biological target: T6, VEGFR2 (Homo sapiens, UniProt P35968); set-up: key: “−” indicates no growth restoration i.e. no activity against the particular kinase; “+”, “++”, and “+++” indicate activity detected by restoration of growth, classified into three categories of potency; “+”, “++”, and “+++” indicate activity detected by restoration of growth, classified into three categories of potency; “+”, “++”, and “+++” indicate activity detected by restoration of growth, classified into three categories of potency; conditions: 7 concentrations between 0.2 and 100 μM
T6 construct: expressed in transfected cells; host or cells: yeast
Procedure: as §1, §2, §3, §4

EGFR (L858R) = biological target: T7, EGFR (L858R) (Homo sapiens, UniProt P00533, L858R); set-up: key: (+) in a different yeast background; conditions: in a different yeast background
T7 construct: expressed in transfected cells; host or cells: yeast
Procedure: as §1, §2, §3, §4

T5 sequence (P17948 27-1338): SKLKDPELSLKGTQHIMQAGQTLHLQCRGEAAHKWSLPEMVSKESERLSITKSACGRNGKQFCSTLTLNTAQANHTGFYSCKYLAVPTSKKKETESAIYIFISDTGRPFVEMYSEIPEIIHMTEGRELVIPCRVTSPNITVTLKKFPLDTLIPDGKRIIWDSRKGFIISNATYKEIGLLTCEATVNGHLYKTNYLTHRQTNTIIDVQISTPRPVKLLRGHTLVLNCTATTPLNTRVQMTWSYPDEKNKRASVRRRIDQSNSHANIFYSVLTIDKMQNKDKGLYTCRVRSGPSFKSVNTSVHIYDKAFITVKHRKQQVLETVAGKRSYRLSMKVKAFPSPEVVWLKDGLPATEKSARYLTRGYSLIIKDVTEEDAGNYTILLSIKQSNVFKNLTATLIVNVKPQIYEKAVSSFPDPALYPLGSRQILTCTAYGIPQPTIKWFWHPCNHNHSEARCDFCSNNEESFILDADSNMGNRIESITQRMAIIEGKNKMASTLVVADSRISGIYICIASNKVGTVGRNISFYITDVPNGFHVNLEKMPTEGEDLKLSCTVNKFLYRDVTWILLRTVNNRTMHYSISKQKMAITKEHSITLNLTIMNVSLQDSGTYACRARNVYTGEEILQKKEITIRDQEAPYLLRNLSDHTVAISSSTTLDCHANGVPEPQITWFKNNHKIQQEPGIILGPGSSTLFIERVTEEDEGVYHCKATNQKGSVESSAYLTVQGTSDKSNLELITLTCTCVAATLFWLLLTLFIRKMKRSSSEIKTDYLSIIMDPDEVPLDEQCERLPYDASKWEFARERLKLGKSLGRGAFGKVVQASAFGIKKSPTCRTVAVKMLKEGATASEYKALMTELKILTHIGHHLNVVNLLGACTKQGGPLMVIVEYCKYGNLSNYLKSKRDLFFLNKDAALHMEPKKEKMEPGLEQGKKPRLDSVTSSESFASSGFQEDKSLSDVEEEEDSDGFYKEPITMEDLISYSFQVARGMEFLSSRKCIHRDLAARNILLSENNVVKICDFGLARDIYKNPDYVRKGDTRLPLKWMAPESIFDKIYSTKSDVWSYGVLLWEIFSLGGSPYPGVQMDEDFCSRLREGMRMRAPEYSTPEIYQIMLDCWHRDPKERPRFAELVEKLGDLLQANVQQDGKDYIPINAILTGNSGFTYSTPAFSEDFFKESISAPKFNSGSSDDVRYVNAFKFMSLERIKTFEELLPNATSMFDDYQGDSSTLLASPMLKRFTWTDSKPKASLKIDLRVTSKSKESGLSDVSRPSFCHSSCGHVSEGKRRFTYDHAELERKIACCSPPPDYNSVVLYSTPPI
T6 sequence (P35968 20-1356): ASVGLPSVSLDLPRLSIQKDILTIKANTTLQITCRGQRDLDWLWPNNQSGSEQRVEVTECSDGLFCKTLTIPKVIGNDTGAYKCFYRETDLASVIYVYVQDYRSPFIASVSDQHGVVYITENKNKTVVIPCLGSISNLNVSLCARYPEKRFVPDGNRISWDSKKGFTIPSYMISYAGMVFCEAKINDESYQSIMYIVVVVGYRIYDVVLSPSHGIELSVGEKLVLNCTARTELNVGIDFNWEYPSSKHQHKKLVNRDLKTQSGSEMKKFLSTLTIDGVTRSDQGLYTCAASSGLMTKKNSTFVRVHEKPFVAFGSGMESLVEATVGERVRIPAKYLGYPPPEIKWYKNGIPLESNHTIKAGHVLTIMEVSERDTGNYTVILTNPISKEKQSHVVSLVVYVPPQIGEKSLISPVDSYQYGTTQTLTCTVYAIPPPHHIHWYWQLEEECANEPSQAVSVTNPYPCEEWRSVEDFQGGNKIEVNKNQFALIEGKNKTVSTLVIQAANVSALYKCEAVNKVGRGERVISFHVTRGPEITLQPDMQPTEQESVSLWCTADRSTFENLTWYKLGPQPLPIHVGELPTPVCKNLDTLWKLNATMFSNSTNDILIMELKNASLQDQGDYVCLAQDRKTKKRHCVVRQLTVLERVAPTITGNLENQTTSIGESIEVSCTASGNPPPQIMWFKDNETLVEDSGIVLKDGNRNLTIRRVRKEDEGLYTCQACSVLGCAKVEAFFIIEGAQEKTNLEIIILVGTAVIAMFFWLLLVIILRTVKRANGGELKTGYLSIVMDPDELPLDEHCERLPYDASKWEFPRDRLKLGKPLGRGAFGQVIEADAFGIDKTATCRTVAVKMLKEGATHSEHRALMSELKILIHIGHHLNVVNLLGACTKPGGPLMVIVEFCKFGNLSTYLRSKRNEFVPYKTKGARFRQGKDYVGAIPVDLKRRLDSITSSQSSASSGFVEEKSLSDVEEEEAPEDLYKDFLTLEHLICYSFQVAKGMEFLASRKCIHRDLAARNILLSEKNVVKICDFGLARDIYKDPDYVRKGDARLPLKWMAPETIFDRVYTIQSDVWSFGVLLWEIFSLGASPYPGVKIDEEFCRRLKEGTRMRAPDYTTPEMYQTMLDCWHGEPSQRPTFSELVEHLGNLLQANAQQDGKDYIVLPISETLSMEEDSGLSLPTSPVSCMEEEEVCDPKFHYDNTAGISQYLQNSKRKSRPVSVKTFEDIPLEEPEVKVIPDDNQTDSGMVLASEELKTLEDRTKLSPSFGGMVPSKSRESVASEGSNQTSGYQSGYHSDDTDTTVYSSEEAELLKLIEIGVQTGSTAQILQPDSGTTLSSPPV
T3 sequence (P07949 29-1114): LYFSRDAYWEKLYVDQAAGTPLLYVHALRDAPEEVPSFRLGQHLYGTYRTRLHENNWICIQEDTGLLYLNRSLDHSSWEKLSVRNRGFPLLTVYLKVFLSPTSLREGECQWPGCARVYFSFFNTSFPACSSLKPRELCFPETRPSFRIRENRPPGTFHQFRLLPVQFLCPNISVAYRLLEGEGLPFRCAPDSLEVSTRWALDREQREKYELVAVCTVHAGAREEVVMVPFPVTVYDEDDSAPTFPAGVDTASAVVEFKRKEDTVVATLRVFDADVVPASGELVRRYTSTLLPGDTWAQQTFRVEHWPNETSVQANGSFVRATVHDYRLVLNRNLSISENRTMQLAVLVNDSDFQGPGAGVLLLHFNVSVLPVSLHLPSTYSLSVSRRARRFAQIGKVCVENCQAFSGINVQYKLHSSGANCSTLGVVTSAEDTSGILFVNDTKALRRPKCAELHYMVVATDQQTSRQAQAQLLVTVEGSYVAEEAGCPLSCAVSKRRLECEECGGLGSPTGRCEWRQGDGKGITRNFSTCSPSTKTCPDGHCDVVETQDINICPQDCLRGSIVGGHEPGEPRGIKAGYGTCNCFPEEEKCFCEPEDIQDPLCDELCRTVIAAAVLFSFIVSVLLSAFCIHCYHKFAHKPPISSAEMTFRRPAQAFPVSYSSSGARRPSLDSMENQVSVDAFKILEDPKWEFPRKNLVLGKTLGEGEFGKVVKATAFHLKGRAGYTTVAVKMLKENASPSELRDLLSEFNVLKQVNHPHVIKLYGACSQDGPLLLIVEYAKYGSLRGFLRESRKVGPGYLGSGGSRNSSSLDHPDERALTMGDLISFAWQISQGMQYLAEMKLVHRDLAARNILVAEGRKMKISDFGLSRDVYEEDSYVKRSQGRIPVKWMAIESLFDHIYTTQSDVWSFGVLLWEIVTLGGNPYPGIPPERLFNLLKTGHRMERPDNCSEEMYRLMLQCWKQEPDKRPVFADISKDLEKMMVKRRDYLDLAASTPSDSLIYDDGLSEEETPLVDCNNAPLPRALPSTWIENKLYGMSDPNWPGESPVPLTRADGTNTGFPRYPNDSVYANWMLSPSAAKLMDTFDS
T1 sequence (P29317 24-976): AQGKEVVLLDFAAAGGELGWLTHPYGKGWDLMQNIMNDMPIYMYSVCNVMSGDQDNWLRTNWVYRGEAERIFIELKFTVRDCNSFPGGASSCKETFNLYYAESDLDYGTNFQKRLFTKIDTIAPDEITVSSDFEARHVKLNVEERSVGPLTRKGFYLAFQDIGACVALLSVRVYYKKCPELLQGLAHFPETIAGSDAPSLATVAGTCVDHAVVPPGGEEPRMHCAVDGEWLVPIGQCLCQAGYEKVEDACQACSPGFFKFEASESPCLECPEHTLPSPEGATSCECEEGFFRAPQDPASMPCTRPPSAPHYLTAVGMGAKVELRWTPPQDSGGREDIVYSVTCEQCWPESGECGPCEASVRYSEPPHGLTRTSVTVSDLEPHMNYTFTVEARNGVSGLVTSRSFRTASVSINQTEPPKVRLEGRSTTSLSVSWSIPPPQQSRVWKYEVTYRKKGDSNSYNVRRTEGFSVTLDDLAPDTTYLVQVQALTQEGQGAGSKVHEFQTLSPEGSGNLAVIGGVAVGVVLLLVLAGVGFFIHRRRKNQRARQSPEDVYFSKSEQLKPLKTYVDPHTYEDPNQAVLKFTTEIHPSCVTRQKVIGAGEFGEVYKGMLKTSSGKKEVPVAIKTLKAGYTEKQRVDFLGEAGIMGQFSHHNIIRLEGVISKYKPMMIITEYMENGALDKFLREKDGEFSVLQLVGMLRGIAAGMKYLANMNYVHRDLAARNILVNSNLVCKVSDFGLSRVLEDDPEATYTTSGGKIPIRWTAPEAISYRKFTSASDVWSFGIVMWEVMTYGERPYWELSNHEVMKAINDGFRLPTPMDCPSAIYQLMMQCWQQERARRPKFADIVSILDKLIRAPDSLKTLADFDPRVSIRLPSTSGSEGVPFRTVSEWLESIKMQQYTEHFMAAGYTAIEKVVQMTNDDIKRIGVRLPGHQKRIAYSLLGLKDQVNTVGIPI

EphA2 growth restoration (EphA2) | EphB2 growth restoration (EphB2) | RET growth restoration (RET) | TEK growth restoration (TEK) | VEGFR1 growth restoration (VEGFR1) | VEGFR2 growth restoration (VEGFR2) | EGFR (L858R) growth restoration (EGFR (L858R)) | Structure (SMILES)
− | ++ | − | − | − | − |  | Cc1nccn2c(Nc3cccc(Cl)c3)c(-c3ccccc3)nc12 [compound 3, (3-Chloro-phenyl)-(8-methyl-2-phenyl-imidazo[1,2-a]pyrazin-3-yl)-amine]
− | − | + − | − | − | − |  | COc1cccc(-c2nc3cnccn3c2Nc2cccc(Cl)c2)c1 [compound 7, (3-Chloro-phenyl)-[2-(3-methoxy-phenyl)-imidazo[1,2-a]pyrazin-3-yl]-amine]
+ | ++ | − | − | − | − | (+) | CC(=O)Nc1ccc(-c2nc3cnccn3c2Nc2cccc(Cl)c2)cc1 [compound 8, N-{4-[3-(3-Chloro-phenylamino)-imidazo[1,2-a]pyrazin-2-yl]-phenyl}-acetamide]
++ | ++ | − | − | − | − | (+) | Nc1ccc(-c2nc3cnccn3c2Nc2cccc(Cl)c2)cc1 [compound 10, [2-(4-Amino-phenyl)-imidazo[1,2-a]pyrazin-3-yl]-(3-chloro-phenyl)-amine]
− | − | − | − | − | − |  | Brc1cccc(Nc2c(-c3ccccc3)nc3cnccn23)c1 [compound 14, (3-Bromo-phenyl)-(2-phenyl-imidazo[1,2-a]pyrazin-3-yl)-amine]
− | − | + | − | − | − |  | Clc1ccc(Nc2c(-c3ccccc3)nc3cnccn23)cc1 [compound 16, (4-Chloro-phenyl)-(2-phenyl-imidazo[1,2-a]pyrazin-3-yl)-amine]
− | − | − | − | − | − |  | CNc1nccn2c(Nc3cccc(Cl)c3)c(-c3ccccc3)nc12 [compound 20, N′3-(3-Chloro-phenyl)-N′8-methyl-2-phenyl-imidazo[1,2-a]pyrazine-3,8-diamine]
+ | ++ | + | − | − | − |  | c1ccc(Nc2c(-c3ccccc3)nc3cnccn23)cc1 [compound 23, Phenyl-(2-phenyl-imidazo[1,2-a]pyrazin-3-yl)-amine]
− | − | − | − | − | − |  | Cc1cccc(Nc2c(-c3ccccc3)nc3cnccn23)c1 [compound 34, (2-Phenyl-imidazo[1,2-a]pyrazin-3-yl)-m-tolyl-amine]
− | − | + | − | − | − |  | Clc1cccc(Nc2c(-c3ccccc3)nc3cnccn23)c1 [compound 35, (3-Chloro-phenyl)-(2-phenyl-imidazo[1,2-a]pyrazin-3-yl)-amine]
+ | +++ | + | − | − | − |  | Cc1nccn2c(Nc3ccccc3)c(-c3ccccc3)nc12 [compound 39, (8-Methyl-2-phenyl-imidazo[1,2-a]pyrazin-3-yl)-phenyl-amine]
− | ++ | − | − | − | − |  | Cc1cccc(Nc2c(-c3ccccc3)nc3c(C)nccn23)c1 [compound 43, (8-Methyl-2-phenyl-imidazo[1,2-a]pyrazin-3-yl)-m-tolyl-amine]
− | +++ | − | − | − | − |  | Cc1nccn2c(Nc3cccc(F)c3)c(-c3ccccc3)nc12 [compound 44, (3-Fluoro-phenyl)-(8-methyl-2-phenyl-imidazo[1,2-a]pyrazin-3-yl)-amine]
− | ++ | − | − | − | − |  | Cc1nccn2c(Nc3ccc(F)c(F)c3)c(-c3ccccc3)nc12 [compound 45, (3,4-Difluoro-phenyl)-(8-methyl-2-phenyl-imidazo[1,2-a]pyrazin-3-yl)-amine]
